Assay results as given in US8129371B2, “Thienopyrimidine and pyrazolopyrimidine compounds and their use as mTOR kinase and PI3 kinase inhibitors” (Wyeth LLC, priority 2007, dated 2012).
Where two headings read alike, the source gives them in different places.

Tests used:
Human mTOR (FLAG-TOR) = target: T1, Human mTOR (FLAG-TOR) (Homo sapiens, UniProt P42345); assay: Human mTOR kinase assay with purified enzyme, DELFIA format; format: biochemical
T1 construct: FLAG
Method in brief: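 Purified FLAG-mTOR in HEPES pH 7.4 buffer with 10 mM MnCl2 was preincubated with inhibitor and reacted 2 h at room temperature with His6-S6K substrate, then stopped with EDTA/EGTA. Phospho-T389 S6K detected by DELFIA with Eu-labelled antibody (40 ng/mL) after plate capture; inhibition computed from signal.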

PI3K [1] = target: T2, PI3K (Homo sapiens, UniProt P42336); assay: Fluorescence polarization assay for PI3K; format: biochemical
T2 construct: PI3 Kinase α IC50; other: PI3 Kinase α; other: PI3 Kinase α isoform, fluorescence polarization
T2 sequence (P42336 whole entry, canonical isoform): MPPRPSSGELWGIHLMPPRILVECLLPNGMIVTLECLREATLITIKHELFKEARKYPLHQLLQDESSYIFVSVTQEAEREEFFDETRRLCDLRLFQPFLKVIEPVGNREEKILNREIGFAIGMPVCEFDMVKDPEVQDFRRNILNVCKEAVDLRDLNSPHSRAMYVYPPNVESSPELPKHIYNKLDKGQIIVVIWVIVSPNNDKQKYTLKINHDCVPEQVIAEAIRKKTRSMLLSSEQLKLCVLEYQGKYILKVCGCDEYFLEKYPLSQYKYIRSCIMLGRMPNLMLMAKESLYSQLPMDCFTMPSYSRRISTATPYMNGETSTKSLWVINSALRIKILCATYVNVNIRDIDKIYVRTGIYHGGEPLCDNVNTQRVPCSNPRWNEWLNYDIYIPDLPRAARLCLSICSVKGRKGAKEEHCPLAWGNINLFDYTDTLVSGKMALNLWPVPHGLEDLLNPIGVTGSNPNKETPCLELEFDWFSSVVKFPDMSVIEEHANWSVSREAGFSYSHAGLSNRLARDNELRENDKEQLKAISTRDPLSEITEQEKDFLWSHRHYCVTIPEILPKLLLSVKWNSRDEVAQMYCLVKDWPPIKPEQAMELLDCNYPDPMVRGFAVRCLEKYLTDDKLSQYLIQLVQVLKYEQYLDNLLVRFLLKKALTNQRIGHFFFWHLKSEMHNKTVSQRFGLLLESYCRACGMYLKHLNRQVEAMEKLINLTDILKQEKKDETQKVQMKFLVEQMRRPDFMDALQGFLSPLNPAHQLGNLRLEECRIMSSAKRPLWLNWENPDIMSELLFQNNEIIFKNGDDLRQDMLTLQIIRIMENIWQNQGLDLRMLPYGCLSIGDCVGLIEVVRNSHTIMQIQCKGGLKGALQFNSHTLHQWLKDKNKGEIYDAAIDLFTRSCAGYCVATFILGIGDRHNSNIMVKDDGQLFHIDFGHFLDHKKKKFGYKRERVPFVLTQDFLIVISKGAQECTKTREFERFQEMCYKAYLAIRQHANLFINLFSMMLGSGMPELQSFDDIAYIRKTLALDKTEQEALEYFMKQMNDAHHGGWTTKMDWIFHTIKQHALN
Method in brief: (§1)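 PI3K was preincubated with compound (final DMSO 1%), and the reaction was started with PIP2/ATP substrate and run 30–60 min. It was stopped with a detector mix giving 10 nM red probe and 70 nM GST-GRP.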

PI3K [2] = target: T3, PI3K (Homo sapiens, UniProt P48736); assay: Fluorescence polarization assay for PI3K; format: biochemical
T3 construct: PI3 Kinase γ IC50; other: PI3 Kinase γ; other: PI3 Kinase γ isoform, fluorescence polarization
T3 sequence (P48736 whole entry, canonical isoform): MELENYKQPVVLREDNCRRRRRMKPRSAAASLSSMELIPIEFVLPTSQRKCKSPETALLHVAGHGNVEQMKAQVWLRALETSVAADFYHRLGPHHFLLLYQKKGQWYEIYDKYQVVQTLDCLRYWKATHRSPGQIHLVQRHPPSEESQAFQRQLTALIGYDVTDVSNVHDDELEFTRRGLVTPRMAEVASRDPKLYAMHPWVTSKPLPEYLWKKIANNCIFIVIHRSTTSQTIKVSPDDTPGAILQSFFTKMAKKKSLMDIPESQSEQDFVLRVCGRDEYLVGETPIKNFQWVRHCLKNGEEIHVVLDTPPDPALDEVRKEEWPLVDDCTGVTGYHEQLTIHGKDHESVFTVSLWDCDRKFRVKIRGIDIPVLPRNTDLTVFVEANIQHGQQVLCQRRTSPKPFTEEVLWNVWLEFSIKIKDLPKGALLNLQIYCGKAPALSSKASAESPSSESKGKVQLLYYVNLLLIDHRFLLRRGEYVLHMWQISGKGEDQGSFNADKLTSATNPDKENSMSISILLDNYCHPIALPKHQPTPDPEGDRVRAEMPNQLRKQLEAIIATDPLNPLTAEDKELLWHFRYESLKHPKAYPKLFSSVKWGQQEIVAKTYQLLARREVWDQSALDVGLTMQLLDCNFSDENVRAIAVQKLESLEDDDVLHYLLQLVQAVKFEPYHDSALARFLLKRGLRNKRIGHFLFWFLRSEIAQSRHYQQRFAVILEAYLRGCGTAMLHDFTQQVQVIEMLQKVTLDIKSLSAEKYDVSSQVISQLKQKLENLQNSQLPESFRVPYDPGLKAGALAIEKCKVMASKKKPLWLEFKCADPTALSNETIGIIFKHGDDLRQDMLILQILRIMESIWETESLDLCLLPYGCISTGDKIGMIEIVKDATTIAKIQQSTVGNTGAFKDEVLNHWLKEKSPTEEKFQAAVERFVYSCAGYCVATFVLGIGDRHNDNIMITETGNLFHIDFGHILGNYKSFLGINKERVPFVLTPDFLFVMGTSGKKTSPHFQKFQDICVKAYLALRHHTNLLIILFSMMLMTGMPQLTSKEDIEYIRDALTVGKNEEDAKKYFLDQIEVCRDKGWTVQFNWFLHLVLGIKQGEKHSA
Method in brief: as §1

prostate line LNCap = assay: In vitro cell culture growth assay (MTS), LNCap; format: cell-based; details: Homo sapiens, 72 h, LNCap cells, three days after drug treatment
Method in brief: (§2)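 Plate cells; add inhibitors on day 1; after 3 days' treatment, add MTS; read A490; express as percent growth of vehicle-treated control.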

breast line MDA468 = assay: In vitro cell culture growth assay (MTS), MDA468; format: cell-based; details: Homo sapiens, 72 h, MDA468 cells, three days after drug treatment
Method in brief: as §2

[3] = purified human mTOR enzyme, DELFIA format
[4] = PI3 Kinase α isoform, fluorescence polarization, read-out: PI3 Kinase α IC50
[5] = PI3 Kinase γ isoform, fluorescence polarization, read-out: PI3 Kinase γ IC50
[6] = PI3 Kinase α, read-out: PI3 Kinase α IC50
[7] = PI3 Kinase γ, read-out: PI3 Kinase γ IC50

IC50 (Human mTOR (FLAG-TOR); [3])	IC50 (PI3K [1]; [4])	IC50 (PI3K [2]; [5])	IC50 (prostate line LNCap; LNCaP)	IC50 (Human mTOR (FLAG-TOR))	IC50 (PI3K [1]; [6])	IC50 (PI3K [2]; [7])	Compound	IC50 (breast line MDA468)	IC50 (PI3K [1])	IC50 (PI3K [2])	IC50 (prostate line LNCap)
0.0135 µM	0.628 µM	> 10 µM	0.24 µM	–	–	–	CNC(=O)Nc1ccc(-c2nc(N3CC4CCC(C3)O4)c3cnn(C(COC)COC)c3n2)cc1 [Example 319, 1-(4-{1-[2-methoxy-1-(methoxymethyl)ethyl]-4-(8-oxa-3-azabicyclo[3.2.1]oct-3-yl)-1H-pyrazolo[3,4-d]pyrimidin-6-yl}phenyl)-3-methylurea]	0.9 µM	–	–	–
0.000245 µM	0.882 µM	> 10 µM	0.02 µM	–	–	–	CNC(=O)Nc1ccc(-c2nc(N3CC4CCC(C3)O4)c3cnn([C@H]4CC[C@H](O)CC4)c3n2)cc1 (relative stereo) [Example 380, 1-{4-[1-(trans-4-hydroxycyclohexyl)-4-(8-oxa-3-azabicyclo[3.2.1]oct-3-yl)-1H-pyrazolo[3,4-d]pyrimidin-6-yl]phenyl}-3-methylurea]	0.07 µM	–	–	–
–	–	–	0.05 µM	0.0012 µM	0.173 µM	0.482 µM	CN(C)CCn1ncc2c(N3CC4CCC(C3)O4)nc(-c3ccc(NC(=O)Nc4ccncc4)cc3)nc21 [Example 162, 1-(4-{1-[2-(dimethylamino)ethyl]-4-(8-oxa-3-azabicyclo[3.2.1]oct-3-yl)-1H-pyrazolo[3,4-d]pyrimidin-6-yl}phenyl)-3-pyridin-4-ylurea]	0.2 µM	–	–	–
–	–	–	2.9 µM	0.1 µM	1.7 µM	> 10 µM	CN(C)CCCNC(=O)Nc1ccc(-c2nc(N3CC4CCC(C3)O4)c3cnn(C)c3n2)cc1 [Example 59, 1-[3-(dimethylamino)propyl]-3-{4-[1-methyl-4-(8-oxa-3-azabicyclo[3.2.1]oct-3-yl)-1H-pyrazolo[3,4-d]pyrimidin-6-yl]phenyl}urea]	8.8 µM	–	–	–
0.0109 µM	0.448 µM	0.372 µM	0.29 µM	–	–	–	CCn1nc(N2CCCC2)c2c(N3CC4CCC(C3)O4)nc(-c3ccc(NC(=O)Nc4cccnc4)cc3)nc21 [Example 346, 1-{4-[1-ethyl-4-(8-oxa-3-azabicyclo[3.2.1]oct-3-yl)-3-pyrrolidin-1-yl-1H-pyrazolo[3,4-d]pyrimidin-6-yl]phenyl}-3-pyridin-3-ylurea]	0.95 µM	–	–	–
0.305 µM	5.08 µM	5.76 µM	5.2 µM	–	–	–	CC(C)(C)OC(=O)N1CC2CN(c3nc(-c4ccc(NC(=O)Nc5ccncc5)cc4)nc4c3cnn4CC(F)(F)F)CC(C1)O2 [Example 340, tert-butyl 7-[6-{4-[(pyridin-4-ylcarbamoyl)amino]phenyl}-1-(2,2,2-trifluoroethyl)-1H-pyrazolo[3,4-d]pyrimidin-4-yl]-9-oxa-3,7-diazabicyclo[3.3.1]nonane-3-carboxylate]	5.2 µM	–	–	–
–	–	–	0.21 µM	0.00355 µM	6.64 µM	> 10 µM	CCn1ncc2c(N3CC4CCC(C3)O4)nc(-c3ccc(NC(=O)OCC(C)O)cc3)nc21 (centres unmarked) [Example 191, 2-hydroxypropyl {4-[1-ethyl-4-(8-oxa-3-azabicyclo[3.2.1]oct-3-yl)-1H-pyrazolo[3,4-d]pyrimidin-6-yl]phenyl}carbamate]	0.78 µM	–	–	–
–	–	–	0.0007 µM	0.00027 µM	0.227 µM	0.579 µM	Cn1ncc2c(N3CC4CCC(C3)O4)nc(-c3ccc(NC(=O)Nc4cccnc4)cc3)nc21 [Example 56, 1-{4-[1-methyl-4-(8-oxa-3-azabicyclo[3.2.1]oct-3-yl)-1H-pyrazolo[3,4-d]pyrimidin-6-yl]phenyl}-3-pyridin-3-ylurea]	0.005 µM	–	–	–
–	–	–	1.6 µM	0.36 µM	5.06 µM	8.93 µM	COC(=O)N1CCC(n2ncc3c(N4CC5CCC(C4)O5)nc(-c4ccc(NC(=O)OCCN(C)C)cc4)nc32)CC1 [Example 115, methyl 4-{6-[4-({[2-(dimethylamino)ethoxy]carbonyl}amino)phenyl]-4-(8-oxa-3-azabicyclo[3.2.1]oct-3-yl)-1H-pyrazolo[3,4-d]pyrimidin-1-yl}piperidine-1-carboxylate]	4.6 µM	–	–	–
0.0008 µM	5.6 µM	2.06 µM	0.01 µM	–	–	–	O=C(Nc1ccc(-c2nc(N3CC4CCC(C3)O4)c3cnn(C4CCC5(CCCO5)CC4)c3n2)cc1)OCCO (single isomer, unassigned) [Example 315, 2-hydroxyethyl (4-{4-(8-oxa-3-azabicyclo[3.2.1]oct-3-yl)-1-[(5r,8r)-1-oxaspiro[4.5]dec-8-yl]-1H-pyrazolo[3,4-d]pyrimidin-6-yl}phenyl)carbamate]	0.22 µM	–	–	–
–	–	–	0.09 µM	0.00047 µM	2.64 µM	> 10 µM	CC(C)C(=O)N1CCC(n2ncc3c(N4CC5CCC(C4)O5)nc(-c4ccc(NC(=O)NCCF)cc4)nc32)CC1 [Example 85, 1-(2-fluoroethyl)-3-{4-[1-(1-isobutyrylpiperidin-4-yl)-4-(8-oxa-3-azabicyclo[3.2.1]oct-3-yl)-1H-pyrazolo[3,4-d]pyrimidin-6-yl]phenyl}urea]	0.3 µM	–	–	–
–	–	–	1.8 µM	0.09 µM	0.903 µM	1.84 µM	Cn1ncc2c(N3CC4CCC(C3)O4)nc(-c3cccc(O)c3)nc21 [Example 61, 3-[1-methyl-4-(8-oxa-3-azabicyclo[3.2.1]oct-3-yl)-1H-pyrazolo[3,4-d]pyrimidin-6-yl]phenol]	7.6 µM	–	–	–
–	–	–	< 0.0008 µM	0.00034 µM	0.291 µM	1.8 µM	CCOC(=O)N1CCC(n2ncc3c(N4CC5CCC(C4)O5)nc(-c4ccc(NC(=O)Nc5ccncc5)cc4)nc32)CC1 [Example 35, ethyl 4-[4-(8-oxa-3-azabicyclo[3.2.1]oct-3-yl)-6-{4-[(pyridin-4-ylcarbamoyl)amino]phenyl}-1H-pyrazolo[3,4-d]pyrimidin-1-yl]piperidine-1-carboxylate]	0.009 µM	–	–	–
0.000335 µM	0.145 µM	1.79 µM	< 0.001 µM	–	–	–	CO[C@H]1CC[C@H](n2ncc3c(N4CC5CCC(C4)O5)nc(-c4ccc(NC(=O)Nc5ccc(N6CCN(C)CC6)cc5)cc4)nc32)CC1 (relative stereo) [Example 396, 1-{4-[1-(trans-4-methoxycyclohexyl)-4-(8-oxa-3-azabicyclo[3.2.1]oct-3-yl)-1H-pyrazolo[3,4-d]pyrimidin-6-yl]phenyl}-3-[4-(4-methylpiperazin-1-yl)phenyl]urea]	0.004 µM	–	–	–
–	–	–	0.012 µM	0.00024 µM	3.96 µM	11 µM	CC(C)(C)OC(=O)N1CCC(n2ncc3c(N4CC5CCC(C4)O5)nc(-c4ccc(NC(=O)NCCF)cc4)nc32)CC1 [Example 21, tert-butyl 4-[6-(4-{[(2-fluoroethyl)carbamoyl]amino}phenyl)-4-(8-oxa-3-azabicyclo[3.2.1]oct-3-yl)-1H-pyrazolo[3,4-d]pyrimidin-1-yl]piperidine-1-carboxylate]	0.12 µM	–	–	–
–	–	–	0.004 µM	0.00108 µM	0.173 µM	1.1 µM	CCn1ncc2c(N3CC4CCC(C3)O4)nc(-c3ccc(NC(=O)Nc4ccc(OCCO)cc4)cc3)nc21 [Example 281, 1-{4-[1-ethyl-4-(8-oxa-3-azabicyclo[3.2.1]oct-3-yl)-1H-pyrazolo[3,4-d]pyrimidin-6-yl]phenyl}-3-[4-(2-hydroxyethoxy)phenyl]urea]	0.019 µM	–	–	–

Compound	IC50 (Human mTOR (FLAG-TOR); [3])	IC50 (PI3K [1]; [4])	IC50 (PI3K [2]; [5])	IC50 (prostate line LNCap; LNCaP)	IC50 (Human mTOR (FLAG-TOR))	IC50 (PI3K [1]; [6])	IC50 (PI3K [2]; [7])	IC50 (breast line MDA468)	IC50 (PI3K [1])	IC50 (PI3K [2])	IC50 (prostate line LNCap)
COC(=O)N1CCC(n2ncc3c(N4C5CCC4COC5)nc(-c4ccc(NC(=O)NC5CC5)cc4)nc32)CC1 [Example 359, methyl 4-[6-{4-[(cyclopropylcarbamoyl)amino]phenyl}-4-(3-oxa-8-azabicyclo[3.2.1]oct-8-yl)-1H-pyrazolo[3,4-d]pyrimidin-1-yl]piperidine-1-carboxylate]	0.000705 µM	5.64 µM	7.79 µM	0.006 µM	–	–	–	0.036 µM	–	–	–
CN(C)c1cccc(OC(=O)Nc2ccc(-c3nc(N4CC5CCC(C4)O5)c4cnn(CC(F)(F)F)c4n3)cc2)c1 [Example 256, 3-(dimethylamino)phenyl {4-[4-(8-oxa-3-azabicyclo[3.2.1]oct-3-yl)-1-(2,2,2-trifluoroethyl)-1H-pyrazolo[3,4-d]pyrimidin-6-yl]phenyl}carbamate]	–	–	–	–	0.195 µM	–	–	18 µM	> 10 µM	> 10 µM	3.5 µM
CN1CCN(c2ccc(NC(=O)Nc3ccc(-c4nc(N5C6CCC5COC6)c5cnn(CC(F)(F)F)c5n4)cc3)cc2)CC1 [Example 270, 1-[4-(4-methylpiperazin-1-yl)phenyl]-3-{4-[4-(3-oxa-8-azabicyclo[3.2.1]oct-8-yl)-1-(2,2,2-trifluoroethyl)-1H-pyrazolo[3,4-d]pyrimidin-6-yl]phenyl}urea]	–	–	–	< 0.001 µM	0.00052 µM	0.371 µM	9.5 µM	0.001 µM	–	–	–
